Measured values: patent US20180027807A1, “Vermin Control Compositions” (priority 2013, published 2018)
Read-outs that look alike come from different tables or passages of the source.

Columns and labels:
[1] = Accelerated stability study of cholecalciferol in DMSO/ethanol formulations; assay type: physicochemical; conditions: across all formulations, 25° C.±2° C./60% RH±5%
Method: The stability of cholecalciferol in the chosen penetration enhancer is an important consideration when analysing the physical properties of the formulation. An unstable formulation which causes cholecalciferol to degrade would result in delivery of sub-lethal doses. […] Conversely, cholecalciferol solutions in surfactants and oils are said to be stable over long periods at 40° C. In order to assess the stability of cholecalciferol when combined with the chosen penetration enhancers an accelerated stability study was performed. In total, 6 formulations with varying types and concentration of penetration enhancers were stored in an accelerated stability cabinet at 25° C.±2° C./60% RH±5%. Each formulation contained 10% (w/v) cholecalciferol. Each formulation was made up a day before the intended start date of the stability study and left in a water bath/shaker overnight at 25° C. to allow adequate time for the cholecalciferol to dissolve. Amber bottles were used to prevent photo-degradation and parafilm was used to seal round the screw lid to prevent oxidative degradation from the air. At each sampling point the lid was removed and 200 μl taken; the sample was serially diluted 8 times (256-fold) before analysis with HPLC.
All formulations contain 10% (w/v) cholecalciferol.

[2] = crystalline form, 7 days, cited from earlier work
[3] = cited from earlier work

C=C1CC[C@H](O)C/C1=C/C=C1\CCC[C@]2(C)[C@@H]([C@H](C)CCCC(C)C)CC[C@@H]12 [cholecalciferol]
degradation of cholecalciferol ([1]; during the first 10 days): 16.83%
degradation of cholecalciferol (drop in potency) ([1]; over 50 days, 10% (w/v) in DMSO/ethanol ratios, amber bottles): 27.11%
decrease in potency ([2]; 40° C./45% RH): 35%
decrease in potency ([2]; 40° C./85% RH): 85%
Solubility (class) ([3]; cholecalciferol in ethanol, classification taken from the British Pharmacopeia): freely soluble (a solubility between 1-10 ml/g is classed as freely soluble)
solubility in water ([3]; cholecalciferol in water, stated): practically insoluble
